Measurements from patent US6897319B2, “Useful aroyl pyrrole heteroaryl methanones and methanols” (Ortho-McNeil Pharmaceutical, Inc., priority 2001, dated 2005).

Assays:
[1] = tested on: maximal electroshock extensor seizure; experiment: Mouse maximal electroshock test (MES) anticonvulsant model; assay type: in vivo; details: po, orally administered, read-out: MES Response ED50
Experimental: Procedure for Testing in Mouse Anticonvulsant Model
The activity of the present compounds as anticonvulsant agents was determined using a standard mouse “maximal electroshock test” (MES). In this test, activity was indicated by a block of the […] extensor seizure, as described by Swinyard, et al. (J. Pharmacol. Exptl. Therap., 1952, 106, 319). A more recent description of current anticonvulsant drug screening is given in Swinyard, et al., in Epilepsia, 1978, 19, 409.
The anticonvulsant activity of the instant compounds is shown in Table 5 and was evaluated according to the Swinyard (1952) method. The abbreviations used in the table have the following meanings: mpk refers to the dose orally administered in “mg per Kg;” and, ED50 refers to the “50% Effective Dose” orally administered in mpk. The values marked by an * represent the number of mice protected/number of mice tested; therefore, a value of 3/3 represents that the number of mice protected matched the number of mice tested at the indicated dose.

[2] = tested on: carrageenan-induced thermal hyperalgesia; experiment: Carrageenan Paw Hyperalgesia Test; assay type: in vivo; details: mouse, orally 30 mg per Kg, 90 minutes following oral dosing
Source text: Procedure for Testing Hyperalgesic Effect
The procedure used to detect the antihyperalgesic activity of a compound of the present invention for which there is a good correlation with human efficacy is the Carrageenan Paw Hyperalgesia Test (as described in Sammons, et al., Brain Research, 2000, 876, 48-54).
Male, CD-1 mice (Charles River Laboratories) weighing 22-30 g each at the time of testing are housed in a climate-controlled, virus free environment for at least 7 days prior to testing. Food and water are available ad libitum up to test time.
Test mice are […] by injecting an irritant (e.g., 0.02 mL of a 1.0% carrageenan solution in 0.9% saline) subcutaneously into the subplantar tissue of one of the hind paws to stimulate an acute inflammatory reaction. The response of the animal following carrageenan injection is subsequently evaluated at a fixed later time and verified to be hyperalgesic relative to a baseline response obtained immediately prior to carrageenan injection.
The mice were dosed orally with either Compound 1 dissolved in a suspension of 20% hydroxypropyl beta cyclodextrin in distilled water or with vehicle alone at a fixed time following carrageenan injection. […] Response latencies were subsequently evaluated at fixed times following oral dosing to assess reversal of hyperalgesia caused by treatment with Compound 1 as compared to vehicle treatment. […]

In the case of `Cn1cc(C(=O)c2ccncc2)cc1C(=O)c1ccc(Cl)cc1` [Cpd 1, [5-(4-Chlorobenzoyl)-1-methyl-1H-pyrrol-3-yl]pyridin-4-ylmethanone], the ED50 [1] is reported as 157 mg/kg and the “% Recovery (reversal of hyperalgesia)” value [2] is reported as 84%.
